According to publication PMC10439133, “Biosynthesis of ansamitocin P-3 incurs stress on the producing strain Actinosynnema pretiosum at multiple targets” (Communications Biology, 2023):

Experiments:
[1] = target: T1, deoxythymidine diphosphate glucose-4,6-dehydratase (dTGD) (Actinosynnema pretiosum, UniProt A0A290ZDY1); assay: SPR (Biacore 8K, CM5 chip); also enzyme inhibition with KI =[…]; assay type: binding
T1 construct: gene rfbB; recombinant His-tagged, from pET30a in E. coli BL21(DE3)
T1 sequence (A0A290ZDY1 1-330): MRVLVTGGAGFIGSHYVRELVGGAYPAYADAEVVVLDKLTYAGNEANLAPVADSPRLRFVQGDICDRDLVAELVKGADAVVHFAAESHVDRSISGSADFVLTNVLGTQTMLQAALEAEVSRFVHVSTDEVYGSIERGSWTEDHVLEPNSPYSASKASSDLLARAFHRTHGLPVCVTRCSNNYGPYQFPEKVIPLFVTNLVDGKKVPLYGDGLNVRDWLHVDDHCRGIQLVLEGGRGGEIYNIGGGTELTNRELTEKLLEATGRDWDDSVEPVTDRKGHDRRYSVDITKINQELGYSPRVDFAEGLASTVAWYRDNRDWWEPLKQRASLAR

[2] = target: T2, flavin-dependent thymidylate synthase (FDTS) (Actinosynnema pretiosum, UniProt A0A290ZCH3); assay: SPR (Biacore 8K, CM5 chip); also NADPH oxidase inhibition with KI =[…]; assay type: binding
T2 construct: gene thyX; recombinant His-tagged, from pET30a in E. coli BL21(DE3)
T2 sequence (A0A290ZCH3 1-250): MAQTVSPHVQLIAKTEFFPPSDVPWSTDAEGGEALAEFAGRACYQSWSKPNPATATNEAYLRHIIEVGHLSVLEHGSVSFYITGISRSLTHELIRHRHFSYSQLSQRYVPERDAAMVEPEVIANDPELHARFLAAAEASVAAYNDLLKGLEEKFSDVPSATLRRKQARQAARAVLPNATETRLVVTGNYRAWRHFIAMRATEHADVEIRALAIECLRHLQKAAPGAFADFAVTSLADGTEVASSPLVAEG

Which results are given for `COc1cc2cc(c1Cl)N(C)C(=O)C[C@H](OC(=O)C(C)C)[C@]1(C)O[C@H]1[C@H](C)[C@@H]1C[C@@](O)(NC(=O)O1)[C@H](OC)/C=C/C=C(\C)C2` [AP-3, ansamitocin P-3]?
Kd [1]: 360 µM; Kd [2]: 66.5 µM
